Measurements from patent US9730938B2, “Bruton's tyrosine kinase inhibitor combinations and uses thereof” (Pharmacyclics LLC, priority 2014, dated 2017).

How the values were obtained:
Type in all cases: cell-based
Conditions in all cases: 3 days
[1] = system: U2932; experiment: Combined drug treatment cell viability, CellTiter-Glo assay (Example 1)
Protocol: (§1) DLBCL cells at either 1×10^4 cells or 2×10^4 cells were plated onto each well of a 96-W plate (Table 1).
(§2) The stock solutions for the IDH1 inhibitor AGI5198 and the MALT1 inhibitor MI-2 were each prepared at 50 mM concentration.
(§3) The 96-W plate was then incubated for 3 days. Cell viability was examined using a CellTiter-Glo assay.
(§4) A 40 μL of CellTiter-Glo reagent was added directly into each well of the 96-W plate. The plate was then shaken on a Shaker (Labsystem Wellmix) at speed 5 for 10-20 min at room temperature. Next, 100 μL of the mixed medium was transferred to a white, non-transparent, flat bottom 96-W plate for assaying. A Flexstation 3 luminometer was used for detecting and measuring the luminescent signals. Measurements were taken at room temperature.
(§5) In general, the combination is described as synergistic (CI<1), additive (CI=1), or antagonistic (CI>1). Synergism is further separated into very strong synergism (<0.1), strong synergism (0.1-0.3), synergism (0.3-0.7), moderate synergism (0.7-0.85), and slight synergism (0.85-0.9).

[2] = system: TMD8; experiment: as above
Protocol: as §1, §2, §3, §4, §5

[3] = system: OCI-LY-10; experiment: as above
Protocol: as §1, §2, §3, §4, §5

[4] = system: SU-DHL-2; experiment: as above
Protocol: as §1, §2, §3, §4, §5

[5] = system: OCI-LY-3; experiment: as above
Protocol: as §1, §2, §3, §4, §5

[6] = system: OCI-LY-10; experiment: Combined drug treatment cell viability, CellTiter-Glo assay (Example 2)
[7] = system: SU-DHL-2; experiment: as above
[8] = system: U2932; experiment: as above
[9] = system: TMD8; experiment: as above
[10] = system: OCI-LY-3; experiment: as above
[11] = system: HBL-1; experiment: as above
[12] = ibrutinib 0 nM, IDH1i 10 uM / MALT1i 200 nM alone
[13] = ibrutinib 0.0256 nM, IDH1i 10 uM / MALT1i 200 nM / medium alone
[14] = ibrutinib 0.128 nM, IDH1i 10 uM / MALT1i 200 nM / medium alone
[15] = ibrutinib 0.64 nM, IDH1i 10 uM / MALT1i 200 nM / medium alone
[16] = ibrutinib 3.2 nM, IDH1i 10 uM / MALT1i 200 nM / medium alone
[17] = ibrutinib 16 nM, IDH1i 10 uM / MALT1i 200 nM / medium alone
[18] = ibrutinib 80 nM, IDH1i 10 uM / MALT1i 200 nM / medium alone
[19] = ibrutinib 400 nM, IDH1i 10 uM / MALT1i 200 nM / medium alone
[20] = ibrutinib 2000 nM, IDH1i 10 uM / MALT1i 200 nM / medium alone
[21] = ibrutinib 10000 nM, IDH1i 10 uM / MALT1i 200 nM / medium alone
[22] = ibrutinib 0 nM, IDH1i 10 uM / MALT1i 5 uM alone
[23] = ibrutinib 0.0256 nM, IDH1i 10 uM / MALT1i 5 uM / medium alone
[24] = ibrutinib 0.128 nM, IDH1i 10 uM / MALT1i 5 uM / medium alone
[25] = ibrutinib 0.64 nM, IDH1i 10 uM / MALT1i 5 uM / medium alone
[26] = ibrutinib 3.2 nM, IDH1i 10 uM / MALT1i 5 uM / medium alone
[27] = ibrutinib 16 nM, IDH1i 10 uM / MALT1i 5 uM / medium alone
[28] = ibrutinib 80 nM, IDH1i 10 uM / MALT1i 5 uM / medium alone
[29] = ibrutinib 400 nM, IDH1i 10 uM / MALT1i 5 uM / medium alone
[30] = ibrutinib 2000 nM, IDH1i 10 uM / MALT1i 5 uM / medium alone
[31] = ibrutinib 10000 nM, IDH1i 10 uM / MALT1i 5 uM / medium alone
[32] = ibrutinib 0 nM, JAK3 10 μM / MCL-1 3 μM alone
[33] = ibrutinib 0.0512 nM, JAK3 10 μM / MCL-1 3 μM / medium alone
[34] = ibrutinib 0.256 nM, JAK3 10 μM / MCL-1 3 μM / medium alone
[35] = ibrutinib 1.28 nM, JAK3 10 μM / MCL-1 3 μM / medium alone
[36] = ibrutinib 6.4 nM, JAK3 10 μM / MCL-1 3 μM / medium alone
[37] = ibrutinib 32 nM, JAK3 10 μM / MCL-1 3 μM / medium alone
[38] = ibrutinib 160 nM, JAK3 10 μM / MCL-1 3 μM / medium alone
[39] = ibrutinib 800 nM, JAK3 10 μM / MCL-1 3 μM / medium alone
[40] = ibrutinib 20000 nM, JAK3 10 μM / MCL-1 3 μM / medium alone
[41] = ibrutinib 40000 nM, JAK3 10 μM / MCL-1 3 μM / medium alone

SMILES: Cc1ccccc1C(C(=O)NC1CCCCC1)N(C(=O)Cn1ccnc1C)c1cccc(F)c1 (centres unmarked) [AGI5198]
- luminescence (CellTiter-Glo) [1, 12]: 52209.68
- luminescence (CellTiter-Glo) [1, 13]: 47490.41
- luminescence (CellTiter-Glo) [1, 14]: 48958.10
- luminescence (CellTiter-Glo) [1, 15]: 45155.81
- luminescence (CellTiter-Glo) [1, 16]: 46620.86
- luminescence (CellTiter-Glo) [1, 17]: 43920.00
- luminescence (CellTiter-Glo) [1, 18]: 43730.28
- luminescence (CellTiter-Glo) [1, 19]: 45769.76
- luminescence (CellTiter-Glo) [1, 20]: 43047.82
- luminescence (CellTiter-Glo) [1, 21]: 31970.32
- luminescence (CellTiter-Glo) ([2]; ibrutinib 0 nM, IDH1i 10 uM / MALT1i 100 nM alone): 75993.70
- luminescence (CellTiter-Glo) ([2]; ibrutinib 0.0256 nM, IDH1i 10 uM / MALT1i 100 nM / medium alone): 25500.80
- luminescence (CellTiter-Glo) ([2]; ibrutinib 0.128 nM, IDH1i 10 uM / MALT1i 100 nM / medium alone): 25788.09
- luminescence (CellTiter-Glo) ([2]; ibrutinib 0.64 nM, IDH1i 10 uM / MALT1i 100 nM / medium alone): 22928.31
- luminescence (CellTiter-Glo) ([2]; ibrutinib 3.2 nM, IDH1i 10 uM / MALT1i 100 nM / medium alone): 23004.75
- luminescence (CellTiter-Glo) ([2]; ibrutinib 16 nM, IDH1i 10 uM / MALT1i 100 nM / medium alone): 22519.77
- luminescence (CellTiter-Glo) ([2]; ibrutinib 80 nM, IDH1i 10 uM / MALT1i 100 nM / medium alone): 22451.24
- luminescence (CellTiter-Glo) ([2]; ibrutinib 400 nM, IDH1i 10 uM / MALT1i 100 nM / medium alone): 19936.75
- luminescence (CellTiter-Glo) ([2]; ibrutinib 2000 nM, IDH1i 10 uM / MALT1i 100 nM / medium alone): 19649.45
- luminescence (CellTiter-Glo) ([2]; ibrutinib 10000 nM, IDH1i 10 uM / MALT1i 100 nM / medium alone): 9604.64
- luminescence (CellTiter-Glo) [3, 22]: 54469.95
- luminescence (CellTiter-Glo) [3, 23]: 60402.37
- luminescence (CellTiter-Glo) [3, 24]: 45182.13
- luminescence (CellTiter-Glo) [3, 25]: 49163.38
- luminescence (CellTiter-Glo) [3, 26]: 37017.16
- luminescence (CellTiter-Glo) [3, 27]: 22951.32
- luminescence (CellTiter-Glo) [3, 28]: 21796.92
- luminescence (CellTiter-Glo) [3, 29]: 22543.73
- luminescence (CellTiter-Glo) [3, 30]: 22738.32
- luminescence (CellTiter-Glo) [3, 31]: 21999.40
- luminescence (CellTiter-Glo) [4, 12]: 124126.7
- luminescence (CellTiter-Glo) [4, 13]: 130906.9
- luminescence (CellTiter-Glo) [4, 14]: 145229.1
- luminescence (CellTiter-Glo) [4, 15]: 142615.3
- luminescence (CellTiter-Glo) [4, 16]: 156751.0
- luminescence (CellTiter-Glo) [4, 17]: 152240.5
- luminescence (CellTiter-Glo) [4, 18]: 152613.5
- luminescence (CellTiter-Glo) [4, 19]: 145121.4
- luminescence (CellTiter-Glo) [4, 20]: 149634.6
- luminescence (CellTiter-Glo) [4, 21]: 50666.3
- luminescence (CellTiter-Glo) [5, 22]: 61813.89
- luminescence (CellTiter-Glo) [5, 23]: 60845.63
- luminescence (CellTiter-Glo) [5, 24]: 58171.75
- luminescence (CellTiter-Glo) [5, 25]: 64267.34
- luminescence (CellTiter-Glo) [5, 26]: 61774.53
- luminescence (CellTiter-Glo) [5, 27]: 63970.82
- luminescence (CellTiter-Glo) [5, 28]: 65372.05
- luminescence (CellTiter-Glo) [5, 29]: 68413.28
- luminescence (CellTiter-Glo) [5, 30]: 66282.58
- luminescence (CellTiter-Glo) [5, 31]: 58163.88

SMILES: Cc1csc(=NC2CCCCC2)n1/N=C/c1ccc(O)c(O)c1O [MIM1]
- luminescence (CellTiter-Glo) [6, 32]: 43143.62
- luminescence (CellTiter-Glo) [6, 33]: 33524.45
- luminescence (CellTiter-Glo) [6, 34]: 26007.29
- luminescence (CellTiter-Glo) [6, 35]: 18751.19
- luminescence (CellTiter-Glo) [6, 36]: 11024.10
- luminescence (CellTiter-Glo) [6, 37]: 8025.84
- luminescence (CellTiter-Glo) [6, 38]: 8938.24
- luminescence (CellTiter-Glo) [6, 39]: 9390.40
- luminescence (CellTiter-Glo) [6, 40]: 9228.91
- luminescence (CellTiter-Glo) [6, 41]: 10886.83
- luminescence (CellTiter-Glo) [7, 32]: 59686.0
- luminescence (CellTiter-Glo) [7, 33]: 55451.4
- luminescence (CellTiter-Glo) [7, 34]: 53088.1
- luminescence (CellTiter-Glo) [7, 35]: 54122.7
- luminescence (CellTiter-Glo) [7, 36]: 53424.9
- luminescence (CellTiter-Glo) [7, 37]: 51898.4
- luminescence (CellTiter-Glo) [7, 38]: 50938.7
- luminescence (CellTiter-Glo) [7, 39]: 51419.9
- luminescence (CellTiter-Glo) [7, 40]: 17553.4
- luminescence (CellTiter-Glo) [7, 41]: 49251.8
- luminescence (CellTiter-Glo) [8, 32]: 59686.00
- luminescence (CellTiter-Glo) [8, 33]: 55451.36
- luminescence (CellTiter-Glo) [8, 34]: 53088.09
- luminescence (CellTiter-Glo) [8, 35]: 54122.68
- luminescence (CellTiter-Glo) [8, 36]: 53424.93
- luminescence (CellTiter-Glo) [8, 37]: 51898.43
- luminescence (CellTiter-Glo) [8, 38]: 50938.68
- luminescence (CellTiter-Glo) [8, 39]: 51419.90
- luminescence (CellTiter-Glo) [8, 40]: 17553.45
- luminescence (CellTiter-Glo) [8, 41]: 49251.78
- luminescence (CellTiter-Glo) [9, 32]: 36019.47
- luminescence (CellTiter-Glo) [9, 33]: 19059.39
- luminescence (CellTiter-Glo) [9, 34]: 18570.62
- luminescence (CellTiter-Glo) [9, 35]: 18591.98
- luminescence (CellTiter-Glo) [9, 36]: 19112.81
- luminescence (CellTiter-Glo) [9, 37]: 19032.68
- luminescence (CellTiter-Glo) [9, 38]: 19452.01
- luminescence (CellTiter-Glo) [9, 39]: 18063.15
- luminescence (CellTiter-Glo) [9, 40]: 4767.52
- luminescence (CellTiter-Glo) [9, 41]: 15624.64
- luminescence (CellTiter-Glo) [10, 32]: 80237.62
- luminescence (CellTiter-Glo) [10, 33]: 76311.68
- luminescence (CellTiter-Glo) [10, 34]: 80052.59
- luminescence (CellTiter-Glo) [10, 35]: 80436.06
- luminescence (CellTiter-Glo) [10, 36]: 73884.80
- luminescence (CellTiter-Glo) [10, 37]: 75378.47
- luminescence (CellTiter-Glo) [10, 38]: 65609.22
- luminescence (CellTiter-Glo) [10, 39]: 74844.82
- luminescence (CellTiter-Glo) [10, 40]: 75182.71
- luminescence (CellTiter-Glo) [10, 41]: 74901.14
- luminescence (CellTiter-Glo) [11, 32]: 51241.07
- luminescence (CellTiter-Glo) [11, 33]: 27898.48
- luminescence (CellTiter-Glo) [11, 34]: 29488.62
- luminescence (CellTiter-Glo) [11, 35]: 35637.34
- luminescence (CellTiter-Glo) [11, 36]: 30743.57
- luminescence (CellTiter-Glo) [11, 37]: 31548.03
- luminescence (CellTiter-Glo) [11, 38]: 32832.47
- luminescence (CellTiter-Glo) [11, 39]: 28815.56
- luminescence (CellTiter-Glo) [11, 40]: 7366.12
- luminescence (CellTiter-Glo) [11, 41]: 26941.18
